Data reported in USRE31396E, “A-21978 Antibiotics and process for their production” (priority 1982, dated 1983).
≈ marks a conversion by molar mass, not a printed value. Like-named read-outs stand apart in the source and are kept apart here.

How the values were obtained:
[1] = tested on: Streptococcus faecalis (Guze); experiment: In vitro susceptibility of the S. faecalis Guze strain; type: cell-based
From the text: ^1 In vitro susceptibility of the S. faecalis Guze strain

[2] = tested on: Eubacterium aerofaciens; experiment: Standard agar-dilution test, anaerobic bacteria; type: cell-based; conditions: anaerobe
[3] = tested on: Actinomyces israelii; experiment: Standard agar-dilution test, anaerobic bacteria; type: cell-based; conditions: anaerobe
[4] = tested on: Micrococcus luteus; experiment: Paper-disc agar-diffusion bioassay; conditions: Na salts
[5] = tested on: Fusobacterium necrophorum; experiment: Standard agar-dilution test, anaerobic bacteria; type: cell-based; conditions: anaerobe
[6] = tested on: Streptococcus pneumoniae; experiment: Experimental bacterial infection in mice; type: in vivo; conditions: subcutaneous administration, two doses
Description: (§1) When two doses of test compound were administered to mice in illustrative infections, the activity observed as measured as an ED50 value [effective dose in mg/kg to protect fifty percent of the test animals: See Warren Wick, et al., J. Bacteriol. 81, 233-235 (1961)].

[7] = tested on: Staphylococcus aureus; experiment: Experimental bacterial infection in mice; type: in vivo; conditions: subcutaneous administration, two doses
Description: as §1

[8] = tested on: Streptococcus pyogenes; experiment: Experimental bacterial infection in mice; type: in vivo; conditions: two doses
Description: as §1

[9] = tested on: Streptococcus pneumoniae; experiment: Agar dilution MIC (Table XV); type: cell-based
From the text: (§2) ^1 MIC = minimum inhibitory concentration (μg/ml), agar dilution

[10] = tested on: Staphylococcus aureus; experiment: Agar dilution MIC (Table XV); type: cell-based
From the text: as §2

[11] = tested on: Streptococcus pyogenes; experiment: Agar dilution MIC (Table XV); type: cell-based
From the text: as §2

[12] = tested on: Streptococcus faecalis (Guze); experiment: Streptococcus faecalis descending rat pyelonephritis test; conditions: rat dose 1.0 mg/kg × 7, subcutaneous
[13] = tested on: Neisseria gonorrhoeae 111076-4; experiment: Standard agar-dilution test; type: cell-based
[14] = tested on: Viridans Streptococcus 9943; experiment: Standard broth-dilution test; type: cell-based
[15] = tested on: Streptococcus pyogenes C203; experiment: Standard broth-dilution test; type: cell-based
[16] = Rat, IV
[17] = tested on: Staphylococcus aureus 3055; experiment: Standard agar-dilution test; type: cell-based
[18] = tested on: Peptostreptococcus anaerobius; experiment: Standard agar-dilution test, anaerobic bacteria; type: cell-based; conditions: anaerobe
[19] = tested on: Clostridium perfringens; type: cell-based; conditions: anaerobe
[20] = tested on: Group D Streptococcus 282; experiment: Standard broth-dilution test; type: cell-based
[21] = tested on: Peptococcus prevoti; experiment: Standard agar-dilution test, anaerobic bacteria; type: cell-based; conditions: anaerobe
[22] = tested on: Viridans Streptococcus 9943; experiment: Standard agar-dilution test; type: cell-based
[23] = tested on: Streptococcus pneumoniae Park I; experiment: Standard agar-dilution test; type: cell-based
[24] = tested on: Streptococcus pyogenes C203; experiment: Standard agar-dilution test; type: cell-based
[25] = tested on: Streptococcus pneumoniae Park I; experiment: Standard broth-dilution test; type: cell-based
[26] = tested on: Propionibacterium acnes; experiment: Standard agar-dilution test, anaerobic bacteria; type: cell-based; conditions: anaerobe
[27] = tested on: Group D Streptococcus 282; experiment: Standard agar-dilution test; type: cell-based
[28] = tested on: Clostridium septicum; experiment: Standard agar-dilution test, anaerobic bacteria; type: cell-based; conditions: anaerobe
[29] = tested on: Staphylococcus aureus 3055; experiment: Standard broth-dilution test; type: cell-based
[30] = tested on: Peptococcus asaccharolyticus; experiment: Standard agar-dilution test, anaerobic bacteria; type: cell-based; conditions: anaerobe
[31] = tested on: Peptostreptococcus intermedius; experiment: Standard agar-dilution test, anaerobic bacteria; type: cell-based; conditions: anaerobe
[32] = tested on: Staphylococcus epidermidis; experiment: ICS agar-dilution, clinical isolates; type: cell-based; conditions: Staphylococcus epidermidis (12 isolates)
[33] = tested on: Fusobacterium symbiosum; experiment: Standard agar-dilution test, anaerobic bacteria; type: cell-based; conditions: anaerobe
[34] = tested on: Bacteroides fragilis; experiment: Standard agar-dilution test, anaerobic bacteria; type: cell-based; conditions: anaerobe
[35] = tested on: Staphylococcus aureus; experiment: ICS agar-dilution, clinical isolates; type: cell-based; conditions: Staphylococcus aureus (10 isolates), MIC or MIC range of isolates
[36] = Mouse

Q: For `CN[C@H](CC(C)C)C(=O)N[C@H]1C(=O)N[C@@H](CC(N)=O)C(=O)N[C@H]2C(=O)N[C@H]3C(=O)N[C@H](C(=O)N[C@H](C(=O)O)c4cc(O)cc(O)c4-c4cc3ccc4O)[C@H](O)c3ccc(c(Cl)c3)Oc3cc2cc(c3O[C@@H]2O[C@H](CO)[C@@H](O)[C@H](O)[C@H]2O[C@H]2C[C@](C)(N)[C@H](O)[C@H](C)O2)Oc2ccc(cc2Cl)[C@H]1O` [Vancomycin, reference compound], which MIC ([1]; Enterococcus faecalis, read-out: MIC) is on record?
A: The MIC was 1 µg/mL (≈ 0.69 µM).

Q: For `CCC(C)CCCCCCC(=O)NC(Cc1c[nH]c2ccccc12)C(=O)NC(CC(N)=O)C(=O)NC(CC(=O)O)C(=O)NC1C(=O)NCC(=O)NC(CCCN)C(=O)NC(CC(=O)O)C(=O)NC(C)C(=O)NC(CC(=O)O)C(=O)NCC(=O)NC(CO)C(=O)NC(C(C)CC(=O)O)C(=O)NC(CC(=O)c2ccccc2N)C(=O)OC1C` (stereo not shown) [Factor C1], which MIC [2] is on record?
A: The MIC was 16 µg/mL (≈ 9.79 µM).

Q: And the MIC [3]?
A: The MIC was 4 µg/mL (≈ 2.45 µM).

Q: What about the “Bioassay (Micrococcus luteus)” value [4] of the same compound?
A: Its value is 1663 units/mg.

Q: What about the MIC [5] of the same compound?
A: Its MIC is 64 µg/mL (≈ 39.2 µM).

Q: What about the ED50 [6] of the same compound?
A: Its ED50 is 0.3 mg/kg.

Q: And the ED50 [7]?
A: Its ED50 is 0.22 mg/kg.

Q: What about the ED50 ([8]; oral administration) of the same compound?
A: Its ED50 is 93 mg/kg.

Q: And the ED50 ([8]; subcutaneous administration)?
A: The ED50 was 0.064 mg/kg.

Q: And the MIC [9]?
A: The MIC was 0.13 µg/mL (≈ 0.0795 µM).

Q: What about the MIC [10] of the same compound?
A: The MIC was 0.5 µg/mL (≈ 0.306 µM).

Q: And the MIC [11]?
A: Its MIC is 0.13 µg/mL (≈ 0.0795 µM).

Q: What about the “Percent of Rats with a 4-Log Titer Decrease” value [12] of the same compound?
A: The value was 50.

Q: What about the “Percent of Rats Cured” value ([12]; kidney counts less than 10^2 per g) of the same compound?
A: Its value is 50.

Q: What about the MIC [13] of the same compound?
A: Its MIC is 16.0 µg/mL (≈ 9.79 µM).

Q: What about the MIC [1] of the same compound?
A: The MIC was 1.0 µg/mL (≈ 0.612 µM).

Q: What about the MIC [14] of the same compound?
A: The MIC was 32.0 µg/mL (≈ 19.6 µM).

Q: What about the MIC [15] of the same compound?
A: The MIC was 0.5 µg/mL (≈ 0.306 µM).

Q: What about the LD50 [16] of the same compound?
A: The LD50 was 479 ± 32 mg/kg.

Q: What about the MIC [17] of the same compound?
A: Its MIC is 0.5 µg/mL (≈ 0.306 µM).

Q: And the MIC [18]?
A: Its MIC is 2 µg/mL (≈ 1.22 µM).

Q: What about the MIC [19] of the same compound?
A: The MIC was 16 µg/mL (≈ 9.79 µM).

Q: What about the MIC [20] of the same compound?
A: Its MIC is 2.0 µg/mL (≈ 1.22 µM).

Q: What about the MIC [21] of the same compound?
A: The MIC was 2 µg/mL (≈ 1.22 µM).

Q: And the MIC [22]?
A: The MIC was 0.5 µg/mL (≈ 0.306 µM).

Q: And the MIC [23]?
A: Its MIC is 0.13 µg/mL (≈ 0.0795 µM).

Q: And the MIC [24]?
A: The MIC was 0.13 µg/mL (≈ 0.0795 µM).

Q: And the MIC [25]?
A: Its MIC is 2.0 µg/mL (≈ 1.22 µM).

Q: What about the MIC [26] of the same compound?
A: The MIC was 8 µg/mL (≈ 4.89 µM).

Q: And the MIC [27]?
A: Its MIC is 1.0 µg/mL (≈ 0.612 µM).

Q: And the MIC [28]?
A: Its MIC is 4 µg/mL (≈ 2.45 µM).

Q: And the MIC [29]?
A: The MIC was 1.0 µg/mL (≈ 0.612 µM).

Q: And the MIC [30]?
A: The MIC was 4 µg/mL (≈ 2.45 µM).

Q: What about the MIC [31] of the same compound?
A: The MIC was 4 µg/mL (≈ 2.45 µM).

Q: And the “Minimum Inhibitory Concentration” value [32]?
A: Its value is 0.13 to 0.25 µg/mL.

Q: And the MIC [33]?
A: Its MIC is > 128 µg/mL.

Q: What about the MIC [34] of the same compound?
A: Its MIC is > 128 µg/mL.

Q: What about the “Minimum Inhibitory Concentration” value [35] of the same compound?
A: Its value is 0.5 µg/mL.

Q: And the LD50 ([36]; IV)?
A: The LD50 was > 250 mg/kg.

Q: What about the LD50 ([36]; SC) of the same compound?
A: The LD50 was > 365 mg/kg.
